According to paper PMC12446476 (Nature Communications, 2025):
Values after ≈ are worked out from the molar mass of the structure shown. Where two headings read alike, the source gives them in different places.

Tested on: N. gonorrhoeae
Assay: MIC determination, Etest
Type: cell-based, Neisseria gonorrhoeae
Conditions: for MIC: Neisseria gonorrhoeae
Text: The 2024 WHO N. gonorrhoeae reference strains were used for quality control. Only whole MIC doubling dilutions are reported. Clinical breakpoints or the epidemiological cutoff (ECOFF, to indicate azithromycin resistance) from EUCAST (v14.0, https://www.eucast.org/clinical_breakpoints) were used to classify isolates as antimicrobial susceptible or resistant. […] Two times the standard inoculum defined by CLSI was used to establish consistent growth in untreated control samples for some strains. In vitro time-kill assays were performed according to CLSI guidelines[65] using Columbia Broth (BD Difco) supplemented with 1% IsoVitaleX Enrichment (BD). Viable bacterial counts were generated by plating 10-fold serially diluted samples on GC agar plates containing 1% IsoVitaleX Enrichment (BD).

CC[C@H]1OC(=O)[C@H](C)[C@@H](O[C@H]2C[C@@](C)(OC)[C@@H](O)[C@H](C)O2)[C@H](C)[C@@H](O[C@@H]2O[C@H](C)C[C@H](N(C)C)[C@H]2O)[C@](C)(O)C[C@@H](C)CN(C)[C@H](C)[C@@H](O)[C@]1(C)O [Azithromycin]
percent of isolates resistant (100 contemporary clinical N. gonorrhoeae isolates, EUCAST): 2% | MIC (WHO F, Etest, read-out: MIC): 0.25 µg/mL (≈ 0.334 µM) | MIC (WHO H, Etest, read-out: MIC): 0.25 µg/mL (≈ 0.334 µM) | MIC (WHO K, Etest, read-out: MIC): 0.5 µg/mL (≈ 0.668 µM) | MIC (WHO L, Etest, read-out: MIC): 1 µg/mL (≈ 1.34 µM) | MIC (WHO M, Etest, read-out: MIC): 0.5 µg/mL (≈ 0.668 µM) | MIC (WHO O, Etest, read-out: MIC): 0.5 µg/mL (≈ 0.668 µM) | MIC (WHO P, Etest, read-out: MIC): 4 µg/mL (≈ 5.34 µM) | MIC (WHO Q, Etest, read-out: MIC): < 256 µg/mL | MIC (WHO R, Etest, read-out: MIC): 0.5 µg/mL (≈ 0.668 µM) | MIC (WHO S2, Etest, read-out: MIC): 2 µg/mL (≈ 2.67 µM) | MIC (WHO U, Etest, read-out: MIC): 4 µg/mL (≈ 5.34 µM) | MIC (WHO V, Etest, read-out: MIC): > 256 µg/mL | MIC (WHO X, Etest, read-out: MIC): 0.5 µg/mL (≈ 0.668 µM) | MIC (WHO Y, Etest, read-out: MIC): 1 µg/mL (≈ 1.34 µM) | MIC (WHO Z, Etest, read-out: MIC): 1 µg/mL (≈ 1.34 µM) | MIC (comparator antibiotics, clinical N. gonorrhoeae isolate 1, Sweden 2023, read-out: Minimum inhibitory concentration): 0.25 µg/mL (≈ 0.334 µM) | MIC (comparator antibiotics, clinical N. gonorrhoeae isolate 2, Sweden 2023, read-out: Minimum inhibitory concentration): 0.125 µg/mL (≈ 0.167 µM) | MIC (comparator antibiotics, clinical N. gonorrhoeae isolate 3, Sweden 2023, read-out: Minimum inhibitory concentration): 0.25 µg/mL (≈ 0.334 µM) | MIC (comparator antibiotics, clinical N. gonorrhoeae isolate 4, Sweden 2023, read-out: Minimum inhibitory concentration): 0.5 µg/mL (≈ 0.668 µM) | MIC (comparator antibiotics, clinical N. gonorrhoeae isolate 5, Sweden 2023, read-out: Minimum inhibitory concentration): 0.064 µg/mL (≈ 0.0854 µM) | MIC (comparator antibiotics, clinical N. gonorrhoeae isolate 6, Sweden 2023, read-out: Minimum inhibitory concentration): 0.064 µg/mL (≈ 0.0854 µM) | MIC (comparator antibiotics, clinical N. gonorrhoeae isolate 7, Sweden 2023, read-out: Minimum inhibitory concentration): 0.125 µg/mL (≈ 0.167 µM) | MIC (comparator antibiotics, clinical N. gonorrhoeae isolate 8, Sweden 2023, read-out: Minimum inhibitory concentration): 0.064 µg/mL (≈ 0.0854 µM) | MIC (comparator antibiotics, clinical N. gonorrhoeae isolate 9, Sweden 2023, read-out: Minimum inhibitory concentration): 0.25 µg/mL (≈ 0.334 µM) | MIC (comparator antibiotics, clinical N. gonorrhoeae isolate 10, Sweden 2023, read-out: Minimum inhibitory concentration): 0.125 µg/mL (≈ 0.167 µM) | MIC (comparator antibiotics, clinical N. gonorrhoeae isolate 11, Sweden 2023, read-out: Minimum inhibitory concentration): 0.25 µg/mL (≈ 0.334 µM) | MIC (comparator antibiotics, clinical N. gonorrhoeae isolate 12, Sweden 2023, read-out: Minimum inhibitory concentration): 0.125 µg/mL (≈ 0.167 µM) | MIC (comparator antibiotics, clinical N. gonorrhoeae isolate 13, Sweden 2023, read-out: Minimum inhibitory concentration): 0.064 µg/mL (≈ 0.0854 µM) | MIC (comparator antibiotics, clinical N. gonorrhoeae isolate 14, Sweden 2023, read-out: Minimum inhibitory concentration): 0.064 µg/mL (≈ 0.0854 µM) | MIC (comparator antibiotics, clinical N. gonorrhoeae isolate 15, Sweden 2023, read-out: Minimum inhibitory concentration): 0.25 µg/mL (≈ 0.334 µM) | MIC (comparator antibiotics, clinical N. gonorrhoeae isolate 16, Sweden 2023, read-out: Minimum inhibitory concentration): 0.25 µg/mL (≈ 0.334 µM) | MIC (comparator antibiotics, clinical N. gonorrhoeae isolate 17, Sweden 2023, read-out: Minimum inhibitory concentration): 0.25 µg/mL (≈ 0.334 µM) | MIC (comparator antibiotics, clinical N. gonorrhoeae isolate 18, Sweden 2023, read-out: Minimum inhibitory concentration): 0.032 µg/mL (≈ 0.0427 µM) | MIC (comparator antibiotics, clinical N. gonorrhoeae isolate 19, Sweden 2023, read-out: Minimum inhibitory concentration): 0.25 µg/mL (≈ 0.334 µM) | MIC (comparator antibiotics, clinical N. gonorrhoeae isolate 20, Sweden 2023, read-out: Minimum inhibitory concentration): 0.5 µg/mL (≈ 0.668 µM) | MIC (comparator antibiotics, clinical N. gonorrhoeae isolate 21, Sweden 2023, read-out: Minimum inhibitory concentration): 0.5 µg/mL (≈ 0.668 µM) | MIC (comparator antibiotics, clinical N. gonorrhoeae isolate 22, Sweden 2023, read-out: Minimum inhibitory concentration): 0.125 µg/mL (≈ 0.167 µM) | MIC (comparator antibiotics, clinical N. gonorrhoeae isolate 23, Sweden 2023, read-out: Minimum inhibitory concentration): 0.125 µg/mL (≈ 0.167 µM) | MIC (comparator antibiotics, clinical N. gonorrhoeae isolate 24, Sweden 2023, read-out: Minimum inhibitory concentration): 0.25 µg/mL (≈ 0.334 µM) | MIC (comparator antibiotics, clinical N. gonorrhoeae isolate 25, Sweden 2023, read-out: Minimum inhibitory concentration): 0.064 µg/mL (≈ 0.0854 µM) | MIC (comparator antibiotics, clinical N. gonorrhoeae isolate 26, Sweden 2023, read-out: Minimum inhibitory concentration): 0.25 µg/mL (≈ 0.334 µM) | MIC (comparator antibiotics, clinical N. gonorrhoeae isolate 27, Sweden 2023, read-out: Minimum inhibitory concentration): 0.125 µg/mL (≈ 0.167 µM) | MIC (comparator antibiotics, clinical N. gonorrhoeae isolate 28, Sweden 2023, read-out: Minimum inhibitory concentration): 0.016 µg/mL (≈ 0.0214 µM) | MIC (comparator antibiotics, clinical N. gonorrhoeae isolate 29, Sweden 2023, read-out: Minimum inhibitory concentration): 0.25 µg/mL (≈ 0.334 µM) | MIC (comparator antibiotics, clinical N. gonorrhoeae isolate 30, Sweden 2023, read-out: Minimum inhibitory concentration): 0.125 µg/mL (≈ 0.167 µM) | MIC (comparator antibiotics, clinical N. gonorrhoeae isolate 31, Sweden 2023, read-out: Minimum inhibitory concentration): 0.064 µg/mL (≈ 0.0854 µM) | MIC (comparator antibiotics, clinical N. gonorrhoeae isolate 32, Sweden 2023, read-out: Minimum inhibitory concentration): 0.064 µg/mL (≈ 0.0854 µM) | MIC (comparator antibiotics, clinical N. gonorrhoeae isolate 33, Sweden 2023, read-out: Minimum inhibitory concentration): 0.125 µg/mL (≈ 0.167 µM) | MIC (comparator antibiotics, clinical N. gonorrhoeae isolate 34, Sweden 2023, read-out: Minimum inhibitory concentration): 0.125 µg/mL (≈ 0.167 µM) | MIC (comparator antibiotics, clinical N. gonorrhoeae isolate 35, Sweden 2023, read-out: Minimum inhibitory concentration): 0.25 µg/mL (≈ 0.334 µM) | MIC (comparator antibiotics, clinical N. gonorrhoeae isolate 36, Sweden 2023, read-out: Minimum inhibitory concentration): 0.5 µg/mL (≈ 0.668 µM) | MIC (comparator antibiotics, clinical N. gonorrhoeae isolate 37, Sweden 2023, read-out: Minimum inhibitory concentration): 0.125 µg/mL (≈ 0.167 µM) | MIC (comparator antibiotics, clinical N. gonorrhoeae isolate 38, Sweden 2023, read-out: Minimum inhibitory concentration): 0.032 µg/mL (≈ 0.0427 µM) | MIC (comparator antibiotics, clinical N. gonorrhoeae isolate 39, Sweden 2023, read-out: Minimum inhibitory concentration): 0.125 µg/mL (≈ 0.167 µM) | MIC (comparator antibiotics, clinical N. gonorrhoeae isolate 40, Sweden 2023, read-out: Minimum inhibitory concentration): 0.064 µg/mL (≈ 0.0854 µM) | MIC (comparator antibiotics, clinical N. gonorrhoeae isolate 41, Sweden 2023, read-out: Minimum inhibitory concentration): 0.25 µg/mL (≈ 0.334 µM) | MIC (comparator antibiotics, clinical N. gonorrhoeae isolate 42, Sweden 2023, read-out: Minimum inhibitory concentration): 0.032 µg/mL (≈ 0.0427 µM) | MIC (comparator antibiotics, clinical N. gonorrhoeae isolate 43, Sweden 2023, read-out: Minimum inhibitory concentration): 0.5 µg/mL (≈ 0.668 µM) | MIC (comparator antibiotics, clinical N. gonorrhoeae isolate 44, Sweden 2023, read-out: Minimum inhibitory concentration): 0.5 µg/mL (≈ 0.668 µM) | MIC (comparator antibiotics, clinical N. gonorrhoeae isolate 45, Sweden 2023, read-out: Minimum inhibitory concentration): 0.064 µg/mL (≈ 0.0854 µM) | MIC (comparator antibiotics, clinical N. gonorrhoeae isolate 46, Sweden 2023, read-out: Minimum inhibitory concentration): 0.032 µg/mL (≈ 0.0427 µM) | MIC (comparator antibiotics, clinical N. gonorrhoeae isolate 47, Sweden 2023, read-out: Minimum inhibitory concentration): 0.125 µg/mL (≈ 0.167 µM) | MIC (comparator antibiotics, clinical N. gonorrhoeae isolate 48, Sweden 2023, read-out: Minimum inhibitory concentration): 0.125 µg/mL (≈ 0.167 µM) | MIC (comparator antibiotics, clinical N. gonorrhoeae isolate 49, Sweden 2023, read-out: Minimum inhibitory concentration): 0.5 µg/mL (≈ 0.668 µM)
